Reference: patent US11026880B2, “Extract of passionflower seeds and cosmetic, pharmaceutical, dermatological and nutraceutical compositions comprising same” (Laboratoires Expanscience, priority 2012, dated 2021)

Columns and labels:
[1] = system: Normal human keratinocytes; assay: Production of reactive oxygen species in keratinocytes under H2O2 stress (DCFH-DA probe); assay type: cell-based; conditions: for Amount of ROS DFU/OD540 (mean ± standard deviation): 24 hours preincubation, 100 μM H2O2 20 minutes
Experimental: The antioxidant action of passionflower hydrolysate on oxidative stress generated by hydrogen peroxide (H2O2) in keratinocytes was evaluated by measuring the amount of reactive oxygen species produced. This test is based on the use of a probe (DCFH-DA) that breaks down and fluoresces in contact with reactive oxygen species (ROS). The fluorescence emitted will be thus proportional to the amount of ROS produced by the cell in response to oxidative stress. Normal human keratinocytes were preincubated for 24 hours in the presence of passionflower hydrolysate or the reference molecules: 10 μM quercetin or 500 μM vitamin C. The cells were then incubated for 1 hour in the presence of the probe DCFH-DA and then treated with 100 μM H2O2 for 20 minutes, still in the presence of passionflower hydrolysate or the reference molecules. The ROS assay was carried out by measuring the fluorescence emitted. The results were normalized to the number of living cells determined using a neutral red uptake assay carried out in parallel. The amount of ROS emitted is thus expressed as fluorescence density (DFU)/optical density resulting from the neutral red assay (OD540). The results were statistically analyzed by one-way analysis of variance followed by Tukey's test.

Jurkat cells = assay: Lipid peroxidation in UV-irradiated Jurkat cells (C11-fluorine probe, flow cytometry); assay type: cell-based; conditions: UV + 50 μM BHT
Experimental: The protective effect of passionflower hydrolysate on lipid peroxidation was evaluated in UV-irradiated Jurkat cells.
Jurkat cells were incubated for 45 minutes in the presence or absence of passionflower hydrolysate or the reference (50 μM BHT) and in the presence of the fluorescent probe specific for the measurement of lipid peroxides (C11-fluorine). This fluorescent probe is a lipid analog that integrates into membranes and whose fluorescence intensity decreases when peroxidized. The cells were then irradiated by UV (UVB 240 mJ/cm^2+UVA 3.5 J/cm^2) in the presence of passionflower hydrolysate or the reference. At the conclusion of the irradiation, the cells were incubated for 30 minutes at 37° C. prior to being analyzed by flow cytometry. The fluorescence intensity results obtained were expressed as a % of the irradiated control.

## O=c1c(O)c(-c2ccc(O)c(O)c2)oc2cc(O)cc(O)c12 [Quercetin, quercetin]
[1]; 10 μM quercetin
  Amount of ROS DFU/OD540 (mean ± standard deviation): 84549.570 ± 9476.724 DFU/OD540
[1]; Homo sapiens, Keratinocyte, 10 μM quercetin, 100 μM H2O2, read-out: Inhibition relative to the H2O2 control (ROS)
  inhibition at 10 µM: 71%

## O=C1O[C@H]([C@@H](O)CO)C(O)=C1O [Vitamin C, vitamin C]
[1]; 500 μM vitamin C
  Amount of ROS DFU/OD540 (mean ± standard deviation): 35997.820 ± 10389.067 DFU/OD540
[1]; Homo sapiens, Keratinocyte, 500 μM vitamin C, 100 μM H2O2, read-out: Inhibition relative to the H2O2 control (ROS)
  inhibition at 500 µM: 87%

## Cc1cc(C(C)(C)C)c(O)c(C(C)(C)C)c1 [BHT]
Jurkat cells
  Protection (%) against lipid peroxidation: 31%
Jurkat cells; UVB 240 mJ/cm^2+UVA 3.5 J/cm^2
  Amount of lipid peroxides (% of the irradiated control): 83 % of the irradiated control
